Data reported in ChEMBL document CHEMBL5352461, “Discovery of the novel Benzo[b]thiophene 1,1-dioxide derivatives as a potent STAT3 inhibitor against idiopathic pulmonary fibrosis” (Eur J Med Chem, 2023).
The source made the active and inactive calls. The rule behind the calls is not given here.

What was measured:
Mus musculus [1] = species on record: Mus musculus; test: Antifibrotic activity against bleomycin-induced C57BL/6 mouse lung fibrosis model assessed as reduction in F4/80+CD11b+ macrophage in lung at high dose incubated for 30 mins by flow cytometry analysis ( Rvb = 17.96%); assay type: functional; parameters: scale not given: the % may be the effect or the level left; conditions: 0.5 h
A549 [2] = test: Induction of morphological changes in TGF-beta1 induced human A549 cells assessed as appearance of spindle shape cells at 200 nM measured for 24 hrs by phase contrast microscopy analysis; assay type: functional, cell-based
Mus musculus [3] = test: Antifibrotic activity against bleomycin-induced C57BL/6 mouse lung fibrosis model assessed as prevention of belomycin-induced collagen-1 expression in lung at 60 mg/kg, ip by immunohistochemical staining based analysis; assay type: functional, organism-based
A549 [4] = test: Inhibition of epithelial-mesenchymal transition in human A549 cells assessed as effect on alpha-SMA by measuring fluorescence intensity measured for 24 hrs by immunofluorescence assays; assay type: functional, cell-based
NIH3T3 [5] = test: Antiproliferative activity against TGFbeta-induced mouse NIH3T3 cells assessed as cell viability at 6.25 to 100 nM incubated for 24 to 72 hrs by CCK-8 assay; assay type: functional, cell-based; conditions: dose 6.25-100 nM, time 24-72 hrs
A549 [6] = test: Inhibition of cell migration in TGF-beta1 induced human A549 cells measured for 24 hrs by contrast-phase microscopic analysis; assay type: functional, cell-based
[7] = Toxicity in C57BL/6 mouse assessed as heart lesion at 60 mg/kg, ip by H and E staining based analysis; assay type: organism-based; conditions: in vivo
NIH3T3 [8] = test: Antiproliferative activity against mouse NIH3T3 cells assessed as cell growth inhibition incubated for 24 to 72 hrs by CCK-8 assay; assay type: functional, cell-based
NIH3T3 [9] = test: Antifibrotic activity in TGF-beta1-induced mouse NIH3T3 cells assessed as inhibition of collagen-1 expression at 50 nM incubated for 24 hrs by Western blot analysis; assay type: functional, cell-based
Mus musculus [10] = species on record: Mus musculus; test: Antifibrotic activity against bleomycin-induced C57BL/6 mouse lung fibrosis model assessed as reduction in CD11c+MHC II+ in dendritic cells in lung at low dose incubated for 30 mins by flow cytometry analysis ( Rvb = 23.67 %); assay type: functional; parameters: scale not given: the % may be the effect or the level left; conditions: 0.5 h
Mus musculus [11] = test: Antifibrotic activity against bleomycin-induced pulmonary fibrosis C57BL/6 mouse model assessed as reduction in alveolar septa thickness at 60 mg/kg, ip administered for 20 days and measured on 21 day; assay type: functional, organism-based
A549 [12] = test: Antiproliferative activity against TGFbeta-induced human A549 cells assessed as reduction in cell viability incubated for 72 hrs by CCK-8 assay; assay type: functional, cell-based; conditions: dose 25-400 nM
Mus musculus [13] = test: Antifibrotic activity against bleomycin-induced pulmonary fibrosis C57BL/6 mouse model assessed as increase in inter-alveolar space at 60 mg/kg, ip administered for 20 days and measured on 21 day; assay type: functional, organism-based
A549 [14] = test: Inhibition of epithelial-mesenchymal transition in TGF-beta1-induced human A549 cells assessed as effect on E-cadherin by measuring fluorescence intensity at 200 nM incubated for 24 hrs by immunofluorescence assays; assay type: functional, cell-based
Mus musculus [15] = test: Antifibrotic activity against bleomycin-induced C57BL/6 mouse lung fibrosis model assessed as prevention of belomycin-induced alpha-SMA expression in lung at 60 mg/kg, ip by immunohistochemical staining based analysis; assay type: functional, organism-based
Mus musculus [16] = species on record: Mus musculus; test: Antifibrotic activity against bleomycin-induced C57BL/6 mouse lung fibrosis model assessed as reduction in F4/80+CD11b+ macrophage incubated for 30 mins by flow cytometry analysis; assay type: functional, organism-based
Mus musculus [17] = species on record: Mus musculus; test: Antifibrotic activity against bleomycin-induced C57BL/6 mouse lung fibrosis model assessed as reduction in CD11c+MHC II+ in dendritic cells in lung at high dose incubated for 30 mins by flow cytometry analysis ( Rvb = 23.67 %); assay type: functional; parameters: scale not given: the % may be the effect or the level left; conditions: 0.5 h
[18] = Toxicity in C57BL/6 mouse assessed as liver lesion at 60 mg/kg, ip by H and E staining based analysis; assay type: organism-based; conditions: in vivo
Mus musculus [19] = species on record: Mus musculus; test: Antifibrotic activity against bleomycin-induced C57BL/6 mouse lung fibrosis model assessed as reduction in F4/80+CD11b+ macrophage in lung at low dose incubated for 30 mins by flow cytometry analysis ( Rvb = 17.96%); assay type: functional; parameters: scale not given: the % may be the effect or the level left; conditions: 0.5 h
Mus musculus [20] = species on record: Mus musculus; test: Antifibrotic activity against bleomycin-induced C57BL/6 mouse lung fibrosis model assessed as reduction in CD11c+MHC II+ in dendritic cells incubated for 30 mins by flow cytometry analysis; assay type: functional, organism-based
Mus musculus [21] = species on record: Mus musculus; test: Antifibrotic activity against bleomycin-induced C57BL/6 mouse lung fibrosis model assessed as reduction in CD4-CD69+ T cell in lung at high dose incubated for 30 mins by flow cytometry analysis ( Rvb = 6.54%); assay type: functional; parameters: scale not given: the % may be the effect or the level left; conditions: 0.5 h
A549 [22] = test: Inhibition of epithelial-mesenchymal transition in human A549 cells assessed as effect on E-cadherin by measuring fluorescence intensity measured for 24 hrs by immunofluorescence assays; assay type: functional, cell-based
Mus musculus [23] = species on record: Mus musculus; test: Antifibrotic activity against bleomycin-induced C57BL/6 mouse lung fibrosis model assessed as reduction in CD4-CD69+ T cell in lung at low dose incubated for 30 mins by flow cytometry analysis ( Rvb = 6.54%); assay type: functional; parameters: scale not given: the % may be the effect or the level left; conditions: 0.5 h
Mus musculus [24] = test: Antifibrotic activity against bleomycin-induced C57BL/6 mouse lung fibrosis model assessed as inhibition of hydroxyproline content in lung at 60 mg/kg, ip; assay type: functional, organism-based
Mus musculus [25] = test: Antifibrotic activity against bleomycin-induced C57BL/6 mouse lung fibrosis model assessed as inhibition of hydroxyproline content in lung at 60 mg/kg, ip administered for 7 to 14 days; assay type: functional, organism-based; conditions: time 7-14 day
NIH3T3 [26] = test: Antifibrotic activity in TGF-beta1-induced mouse NIH3T3 cells assessed as inhibition of STAT3 phosphorylation at 50 nM incubated for 24 hrs by Western blot analysis; assay type: functional, cell-based
Mus musculus [27] = species on record: Mus musculus; test: Antifibrotic activity against bleomycin-induced C57BL/6 mouse lung fibrosis model assessed as reduction in CD4-CD69+ T cell incubated for 30 mins by flow cytometry analysis; assay type: functional, organism-based
A549 [28] = test: Antiproliferative activity against TGFbeta-induced human A549 cells assessed as reduction in cell viability at 200 nM incubated for 72 hrs by CCK-8 assay; assay type: functional
NIH3T3 [29] = test: Antiproliferative activity against mouse NIH3T3 cells assessed as cell growth inhibition incubated for 72 hrs by CCK-8 assay; assay type: functional, cell-based; conditions: dose 6.25-100 nM
[30] = Toxicity in C57BL/6 mouse assessed as kidney lesion at 60 mg/kg, ip by H and E staining based analysis; assay type: organism-based; conditions: in vivo
Mus musculus [31] = test: Antifibrotic activity against bleomycin-induced C57BL/6 mouse lung fibrosis model assessed as reduction in STAT3 phosphorylation at Ty705 residue in lung at 60 mg/kg, ip by immunohistochemical staining based analysis; assay type: functional, organism-based
NIH3T3 [32] = test: Antifibrotic activity in TGF-beta1-induced mouse NIH3T3 cells assessed as inhibition of alpha-SMA expression at 50 nM incubated for 24 hrs by Western blot analysis; assay type: functional, cell-based
[33] = molecular target: Signal transducer and activator of transcription 3 (Mus musculus) (UniProt P42227); test: Binding affinity to STAT3 in mouse NIH3T3 cells assessed as reduction in protein degradation; assay type: cell-based
[34] = Toxicity in C57BL/6 mouse assessed as spleen lesion at 60 mg/kg, ip by H and E staining based analysis; assay type: organism-based; conditions: in vivo
NIH3T3 [35] = test: Inhibition of colony formation in mouse NIH3T3 cells assessed as inhibition of cell proliferation incubated for 2 weeks by crystal violet staining based microscopic analysis; assay type: functional; conditions: dose <= 100.0 nM
[36] = molecular target: Signal transducer and activator of transcription 3 (Homo sapiens) (UniProt P40763); test: Binding affinity to STAT3 in human A549 cells assessed as reduction in protein degradation; assay type: cell-based
A549 [37] = test: Inhibition of epithelial-mesenchymal transition in TGF-beta1-induced human A549 cells assessed as effect on alpha-SMA by measuring fluorescence intensity at 200 nM incubated for 24 hrs by immunofluorescence assays; assay type: functional, cell-based

Sequence of Signal transducer and activator of transcription 3 (Homo sapiens) (P40763 whole entry): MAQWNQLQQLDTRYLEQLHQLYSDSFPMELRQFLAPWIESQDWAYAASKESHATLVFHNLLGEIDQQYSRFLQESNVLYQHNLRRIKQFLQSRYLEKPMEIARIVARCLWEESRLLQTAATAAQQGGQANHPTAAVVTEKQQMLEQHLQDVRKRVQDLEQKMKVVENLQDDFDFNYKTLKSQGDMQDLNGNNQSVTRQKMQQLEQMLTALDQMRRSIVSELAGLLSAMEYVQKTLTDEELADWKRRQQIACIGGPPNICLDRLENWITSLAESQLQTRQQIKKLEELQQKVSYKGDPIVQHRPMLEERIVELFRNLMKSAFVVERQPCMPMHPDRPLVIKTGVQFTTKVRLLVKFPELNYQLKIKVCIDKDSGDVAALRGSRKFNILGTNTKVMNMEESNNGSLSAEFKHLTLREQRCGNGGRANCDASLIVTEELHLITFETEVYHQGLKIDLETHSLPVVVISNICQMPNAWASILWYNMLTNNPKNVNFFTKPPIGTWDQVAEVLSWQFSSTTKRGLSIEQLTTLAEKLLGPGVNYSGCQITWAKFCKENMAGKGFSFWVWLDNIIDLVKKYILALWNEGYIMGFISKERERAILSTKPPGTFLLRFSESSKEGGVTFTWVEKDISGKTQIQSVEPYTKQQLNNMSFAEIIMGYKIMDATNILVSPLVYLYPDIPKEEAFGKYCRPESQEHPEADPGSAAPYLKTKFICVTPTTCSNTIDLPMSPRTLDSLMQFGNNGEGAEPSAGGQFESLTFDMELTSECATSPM
Sequence of Signal transducer and activator of transcription 3 (Mus musculus) (P42227 whole entry): as the sequence (P40763 whole entry) above, with E760D counted along it

O=C(C1=Cc2ccccc2S1(=O)=O)N1CCN(Cc2cc(F)c(F)cc2F)CC1
Activity (Mus musculus [1]): 10.45% | Activity (A549 [2]): Active | Activity (Mus musculus [3]): Active | inhibition (A549 [4]): Active | Activity (NIH3T3 [5]): Active | inhibition (A549 [6]): Active | Activity [7]: Non-Toxic | IC50 (NIH3T3 [8]): 470 nM | Activity (NIH3T3 [9]): Active | Activity (Mus musculus [10]): 12.37% | Activity (Mus musculus [11]): Active | Activity (A549 [12]): Dose-Dependent Effect | Activity (Mus musculus [13]): Active | inhibition (A549 [14]): Active | Activity (Mus musculus [15]): Active | Activity (Mus musculus [16]): Active | Activity (Mus musculus [17]): 9.28% | Activity [18]: Non-Toxic | Activity (Mus musculus [19]): 6.93% | Activity (Mus musculus [20]): Active | Activity (Mus musculus [21]): 2.84% | inhibition (A549 [22]): Active | Activity (Mus musculus [23]): 0.65% | Activity (Mus musculus [24]): Active | Activity (Mus musculus [25]): Active | Activity (NIH3T3 [26]): Active | Activity (Mus musculus [27]): Active | Activity (A549 [28]): 50% | Activity (NIH3T3 [29]): Dose-Dependent Effect | Activity [30]: Non-Toxic | Activity (Mus musculus [31]): Active | Activity (NIH3T3 [32]): Active | Activity [33]: Active | Activity [34]: Non-Toxic | inhibition (NIH3T3 [35]): Dose-Dependent Effect | Activity [36]: Active | inhibition (A549 [37]): Active
